From patent US8883167B2, “Ethanol extract of Antrodia camphorata for inducing apoptosis and preparation method thereof” (Kaohsiung Medical University, priority 2009, dated 2014) come the findings set out here.

The experiment has as its system HL 60 cells. Briefly: MTT cytotoxicity / antiproliferative assay on HL 60 cells. In kind it is cell-based. The conditions noted are these: Homo sapiens, Embodiment 1, 24 hours, read-out: 50% inhibition concentration (IC50) on HL 60 cells by MTT assay. How it is done: Human leukemia HL 60 cell line was purchased from American Type Culture Collection (ATCC, Manassas, Va.) and incubated in RPMI 1640 medium supplemented with 10% fetal calf serum, 2 mM glutamine, 100 units/ml penicillin and 100 μg/ml streptomycin at 37° C. in a humidified atmosphere of 5% carbon dioxide.
Cell viability was determined by the trypan blue dye exclusion and cytotoxicity was assessed by MTT assay. First, 1×10^5 HL 60 cells were plated in 96-well plates and treated with different concentrations of EEAC dissolved in dimethyl sulfoxide (DMSO) at the concentrations of 0 to 150 μg/ml for 24 hours. Death cells then were stained with trypan blue, and the survival cells were calculated with hemocytometer. In MTT assay, 1.2 mg/ml MTT was added in each well, which was incubated for 2 hours to form […], formazan. Formazan was dissolved in DMSO, and absorbance was detected at a wavelength of 570 nm.
In general terms: Tetrazolium dyes change colour on reduction, which living cells bring about.

Converted amounts (≈) assume the structure as drawn.

With `C=C(CC[C@@H](C)C1CCC2C3=C(C(=O)CC21C)C1(C)CCC(=O)[C@@H](C)C1CC3=O)C(C)C(=O)O` (stereo partly shown) [zhankuic acid A], the IC50 was determined as 5.45 µg/mL (≈ 11.6 µM).
